Measurements as given in US7109354B2, “Thiophene amidines, compositions thereof, and methods of treating complement-mediated diseases and conditions” (3-Dimensional Pharmaceuticals, Inc., priority 2002, dated 2006).

Target: T1, Activated human C1s (Homo sapiens, UniProt P09871)
T1 construct: purchased Calbiochem (La Jolla, Calif.)
T1 sequence (P09871 438-688 limits assumed): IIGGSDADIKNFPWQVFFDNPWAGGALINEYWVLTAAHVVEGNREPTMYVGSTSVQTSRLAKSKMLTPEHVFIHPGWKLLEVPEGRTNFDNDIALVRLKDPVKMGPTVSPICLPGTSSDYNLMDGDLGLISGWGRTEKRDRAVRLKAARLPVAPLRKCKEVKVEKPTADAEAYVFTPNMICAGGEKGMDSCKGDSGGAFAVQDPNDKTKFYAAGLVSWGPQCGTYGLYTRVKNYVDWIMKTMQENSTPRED
T1 sequence (P09871 16-437 partner limits assumed): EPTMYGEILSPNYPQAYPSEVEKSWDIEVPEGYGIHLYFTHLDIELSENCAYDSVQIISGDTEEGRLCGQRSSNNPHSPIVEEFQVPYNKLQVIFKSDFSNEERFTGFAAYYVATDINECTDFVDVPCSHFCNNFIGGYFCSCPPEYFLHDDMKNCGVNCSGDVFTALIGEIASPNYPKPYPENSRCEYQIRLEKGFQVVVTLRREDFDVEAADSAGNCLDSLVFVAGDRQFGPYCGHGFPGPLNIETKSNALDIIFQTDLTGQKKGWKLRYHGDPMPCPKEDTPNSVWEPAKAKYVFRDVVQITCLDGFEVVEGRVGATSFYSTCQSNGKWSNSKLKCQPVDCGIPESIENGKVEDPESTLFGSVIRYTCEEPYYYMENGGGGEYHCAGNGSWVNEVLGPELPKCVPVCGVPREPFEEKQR
Experiment: In vitro inhibition of C1s (Ki determination, C1s-catalyzed hydrolysis of Z-Gly-Arg-S-Bzl, DTNB readout)
Type: biochemical
Conditions: substrate Z-Gly-Arg-S-Bzl 45 μM, DTNB 200 μM, C1s 2.3 nM, pH 7.5, 37° C., absorbance at 405 nm
Protocol: Reagents: All buffer salts were obtained from Sigma Chemical Company (St. Louis, Mo.), and were of the highest purity available. DTNB was purchased from Pierce (Rockford, Ill.). Z-Gly-Arg-S-Bzl was purchased from Enzyme Systems Products (Livermore, Calif.). Activated human C1s was purchased from Calbiochem (La Jolla, Calif.).
Test compounds are prepared as a 10 μM solution in DMSO. Dilutions are prepared in DMSO yielding 7 final concentrations encompassing a 700-fold concentration range.
Reactions were initiated by the addition of a 10 μL aliquot of the enzyme, and the absorbance increase at 405 nm is continuously recorded for 15 minutes in a Molecular Devices plate reader. Final DMSO concentration was 4.3%. […] The ratio of the velocity (rate of change in absorbance as a function of time) for a sample containing no test compound is divided by the velocity of a sample containing test compound, and is plotted as a function of test compound concentration. The data are fit to a linear regression, and the value of the slope of the line calculated. The inverse of the slope is the experimentally determined Ki value.

Ki, 6 to 23 nM:
COc1ccc(-c2cccc(S(=O)(=O)c3cc(C(=N)N)sc3SC)c2)cc1 [Example 42, 4-(4′-Methoxy-biphenyl-3-sulfonyl)-5-methylsulfanyl-thiophene-2-carboxamidine]
COc1ccc(-c2cccc(S(=O)(=O)c3cc(C(=N)N)sc3SC)c2)cc1OC [Example 43, 4-(3′,4′-Dimethoxy-biphenyl-3-sulfonyl)-5-methylsulfanyl-thiophene-2-carboxamidine]
COc1cccc(-c2cccc(S(=O)(=O)c3cc(C(=N)N)sc3SC)c2)c1 [Example 44, 4-(3′-Methoxy-biphenyl-3-sulfonyl)-5-methylsulfanyl-thiophene-2-carboxamidine]
COc1ccccc1-c1cccc(S(=O)(=O)c2cc(C(=N)N)sc2SC)c1 [Example 45, 4-(2′-Methoxy-biphenyl-3-sulfonyl)-5-methylsulfanyl-thiophene-2-carboxamidine]
CSc1sc(C(=N)N)cc1S(=O)(=O)c1cccc(-c2cc(Cl)cc(Cl)c2)c1 [Example 46, 4-(3′,5′-Dichloro-biphenyl-3-sulfonyl)-5-methylsulfanyl-thiophene-2-carboxamidine]
CSc1sc(C(=N)N)cc1S(=O)(=O)c1cccc(-c2cc(Cl)ccc2Cl)c1 [Example 47, 4-(2′,5′-Dichloro-biphenyl-3-sulfonyl)-5-methylsulfanyl-thiophene-2-carboxamidine]
CSc1sc(C(=N)N)cc1S(=O)(=O)c1cccc(-c2cc(C(F)(F)F)cc(C(F)(F)F)c2)c1 [Example 48, 4-(3′,5′-Bis-trifluoromethyl-biphenyl-3-sulfonyl)-5-methylsulfanyl-thiophene-2-carboxamidine]
CSc1sc(C(=N)N)cc1S(=O)(=O)c1cccc(-c2cc3ccccc3o2)c1 [Example 49, 4-(3-Benzofuran-2-yl-benzenesulfonyl)-5-methylsulfanyl-thiophene-2-carboxamidine]
CSc1sc(C(=N)N)cc1S(=O)(=O)c1cccc(-c2cc3ccccc3s2)c1 [Example 50, 4-(3-Benzo[b]thiophen-2-yl-benzenesulfonyl)-5-methylsulfanyl-thiophene-2-carboxamidine]
CSc1sc(C(=N)N)cc1S(=O)(=O)c1cccc(-c2ccc(C)c([N+](=O)[O-])c2)c1 [Example 51, 4-(4′-Methyl-3′-nitro-biphenyl-3-sulfonyl)-5-methylsulfanyl-thiophene-2-carboxamidine]
CSc1sc(C(=N)N)cc1S(=O)(=O)c1cccc(-c2ccc(C)cc2)c1 [Example 52, 4-(4′-Methyl-biphenyl-3-sulfonyl)-5-methylsulfanyl-thiophene-2-carboxamidine]
CSc1sc(C(=N)N)cc1S(=O)(=O)c1cccc(-c2ccc(Cl)cc2)c1 [Example 53, 4-(4′-Chloro-biphenyl-3-sulfonyl)-5-methylsulfanyl-thiophene-2-carboxamidine]
CSc1sc(C(=N)N)cc1S(=O)(=O)c1cccc(-c2ccc(C(F)(F)F)cc2)c1 [Example 54, 5-Methylsulfanyl-4-(4′-trifluoromethyl-biphenyl-3-sulfonyl)-thiophene-2-carboxamidine]
CSc1sc(C(=N)N)cc1S(=O)(=O)c1cccc(-c2ccc(OC(F)(F)F)cc2)c1 [Example 55, 5-Methylsulfanyl-4-(4′-trifluoromethoxy-biphenyl-3-sulfonyl)-thiophene-2-carboxamidine]
CSc1sc(C(=N)N)cc1S(=O)(=O)c1cccc(-c2ccc(Oc3ccccc3)cc2)c1 [Example 56, 5-Methylsulfanyl-4-(4′-phenoxy-biphenyl-3-sulfonyl)-thiophene-2-carboxamidine]
CSc1sc(C(=N)N)cc1S(=O)(=O)c1cccc(-c2ccc3c(c2)OCO3)c1 [Example 58, 4-(3-Benzo[1,3]dioxol-5-yl-benzenesulfonyl)-5-methylsulfanyl-thiophene-2-carboxamidine]
